Results on two compounds are retold here after patent US10227349B2, “Pyrazolo[1,5-a]pyrimidine compound” (Eisai R&D Management Co., Ltd., priority 2016, dated 2019).

SMILES strings stand for the structures.

For test [1], the system named is OXA-induced enteritis in BALB/c male mice. Briefly: Model mouse for enteritis (OXA-induced, bowel length). The class given is in vivo. As to conditions: po, 48 h, 0.1 mg/mL solution 10 mL/kg orally twice (1 hour before and day after OXA induction), length of colon and rectum two days after induction, read-out: Inhibitory activity on bowel shortening (%). On the procedure:
Generally, the bowel length is known to be shorter during enteritis (Maxwell, J. R. et al. Curr. Protoc. Pharmacol. Chapter 5: Unit 5.58, 2009). The bowel length in an enteritis model was measured to evaluate the effect of the test compound.
The test compound was added to a 0.5% carboxymethyl cellulose solution so as to have a final concentration of 0.1 mg/mL, thereby preparing an administration solution containing the test compound. Hapten used was 4-ethoxymethylene-2-phenyloxazol-5-one (OXA, SIGMA-ALDRICH).
One hundred (100) μL of a solution of OXA diluted to 0.3% with ethanol was applied to the shaved abdominal region of BALB/c male mice (Charles River), 6-10 weeks of age, to create the sensitization. Five days after the sensitization, OXA was intrarectally administered to induce an enteritis reaction. More specifically, a syringe equipped with a sonde for oral administration was inserted into the anus of the mouse anesthetized by the inhalation of isoflurane at a concentration of 4-5% and 50 μL of the OXA solution adjusted to 1% with a solvent of 50% ethanol/50% distilled water was administered into the rectum.
One hour before and on the day following the induction of enteritis, the administration solution containing the test compound (10 mL/kg) was orally administered twice in total to the mice. Two days after the induction of enteritis, the mice were euthanized by cervical dislocation and subsequently the cecum to the anus was collected to measure the combined length of the colon and the rectum using a ruler, thereby evaluating the action of the test compound.
Note that Reference Example 1 in Table 6 is Compound (XIX).

Test [2] relates to tape stripping-induced skin barrier disruption in Hos: HR-1 mice. Briefly: Mouse model of skin barrier disruption induced by tape stripping (TEWL). The class given is in vivo. Conditions: TEWL 0 and 1 hour after stripping, average ± standard deviation, n=10. On the procedure:
The effect of the test compounds on the skin barrier functions was evaluated using a model with skin barrier disruption induced by tape stripping. Trans-epidermal water loss (TEWL) is an evaluation indicator of the skin barrier functions (Journal of Investigative Dermatology, 126, p 2074-2086 (2006)).
Seven-week old male Hos: HR-1 mice (Hoshino Laboratory Animals, Inc.) were subjected to the test (n=10 for each treatment). For oral administration, solutions of test compounds with different concentrations were prepared as follows. […]
(2) The solution of the test compound prepared in (1) was diluted with a 0.5% methylcellulose solution to prepare a solution of the test compound so that the concentration of the test compound was 0.3 mg/mL. TEWL was measured before the test compound was administered (termed as TEWL [pre]). After the TEWL [pre] was measured, the solution of the test compound adjusted as in (1) or (2) was administered orally (dose: 10 mL/kg). […] TEWL immediately after and 1 hour after the tape stripping were measured (termed as TEWL [0 hour], TEWL [1 hour], respectively), % Barrier recovery was calculated in accordance with the following formula. % Barrier Recovery={(TEWL [0 hour]−TEWL [1 hour])/(TEWL [0 hour]−TEWL [pre])}*100
The result was expressed as the average ± standard deviation of the % barrier recovery. […]

`C[C@@H](c1ccccc1)N(C)c1cc(-c2cc(F)c(F)c(F)c2)nc2cc(C(=O)N3CCC(CC(=O)O)CC3)nn12` [Reference Example 1, (S)-2-(1-(7-(methyl(1-phenylethyl)amino)-5-(3,4,5-trifluorophenyl)pyrazolo[1,5-a]pyrimidine-2-carbonyl)piperidin-4-yl)acetic acid, reference compound]: the inhibition in vivo at 100 µg/mL, 1 mg/kg in test [1] was found to be 37.3%.
For `CO[C@H]1CN(C(=O)c2cc3nc(-c4cc(F)c(Cl)c(F)c4)cc(N(C)c4c(C)cccc4F)n3n2)CC[C@H]1CC(=O)O` [Example 10, 2-((3R,4S)-1-(5-(4-chloro-3,5-difluorophenyl)-7-((2-fluoro-6-methylphenyl)(methyl)amino)pyrazolo[1,5-a]pyrimidine-2-carbonyl)-3-methoxypiperidin-4-yl)acetic acid], the “% Barrier recovery” value came to 24.2 ± 8.1% in test [2] (3 mg/kg orally 1 hour before tape stripping) and 53.5 ± 4.9 % in test [2] (10 mg/kg orally 1 hour before tape stripping, p < 0.05 versus Vehicle).
